The values that follow come from patent publication US20250297300A1, “DETECTION, STAGING, MONITORING AND TREATING A DISEASE OR A CONDITION” (SUNBIRD BIO, INC., priority 2021, published 2025).

Series [1] concerns proteases in plasma sensed by Probe #102 (cathepsin L). The series is described as follows: Inhibitor profiling of Probe #102 cleavage in NASH and healthy plasma. The class given is biochemical, mice. The settings on record: for effect of inhibitor on signal for NASH or healthy samples: Probe #102. As for the experimental part: For this experiment, all plasma samples were prepared individually and diluted 1/10e in PBS with inhibitor added directly to the samples. Inhibitor was prepared at 15× concentration to final. Substrates were diluted in DI water at 18 uM, such that the final concentration on the plate would be 6 uM. All samples were prepared such that their last dilution on the plate would not affect the desired final concentration. 10 ul of each individual sample was pipetted into their corresponding wells, and the plate was then spun down in the centrifuge at 1500 RPM for 30 seconds to coat the bottom of each well with the sample. 5 ul of the 18 uM substrate solution was pipetted into each well being used on a 384 well plate, and then the plate was spun down in the centrifuge at 1500 rpm for 30 seconds. The plate was placed immediately in the plate reader at 37° C. for a 30-minute-long fluorescence kinetic read at 485/535 extended gain.
To assess the proteolytic cleavage pattern of Probe #102, samples were tested using a pool of broad inhibitors for serine, cysteine, threonine, MMP and aspartic protease family members (broad inhibitor) to assess general protease activity, AEBSF for serine proteases, E64 for cysteine proteases, CTSi for broad cathepsin inhibition of cathepsins L,S,K and B, or specific inhibitors for cathepsin K (L00625), for cathepsin L (SID) or cathepsin B (CA074).

For series [2] the following is noted: cited from earlier work.
Series [3] concerns carboxylesterase 1, phospholipase A2 and lipoprotein lipase. Briefly: Spiked recombinant enzymes in human plasma with resorufin oleate as substrate. The class given is biochemical.
Series [4] has as its system caspase activity in hepatitis. Briefly: Ex vivo FRET probe cleavage in plasma of Jo2 fulminant hepatitis mice. The class given is biochemical. Conditions: plasma 3 hours after Jo2 injection. How it is done:
Fulminant hepatitis is induced after injection intraperitoneal of monoclonal antibody anti-CD95 (Jo2, BD biosciences, 4 ug/animal), and mouse plasma samples were collected 3 hours after Jo2 injection.

In series [5] the test system is COVID-related proteases. Briefly: Ex vivo FRET probe cleavage in COVID vs healthy K2EDTA and Lithium Heparin plasma. The class given is biochemical. The settings on record: K2EDTA and Lithium Heparin plasma sets.
Series [6] concerns cathepsin and/or MMP protease activities. Briefly: Ex vivo FRET probe cleavage in plasma: NASH progression, regression, healthy mice. Conditions: K2EDTA plasma at 20 weeks. The class given is biochemical. The source says: Plasma samples were collected from all animals at 20 weeks.
The probes showing the most differentiation in NASH were linked to cathepsin and/or MMP protease activities.

The next series has as its system NASH-related proteases. Briefly: Ex vivo FRET probe cleavage in K2EDTA plasma of NASH (CDAHFD) vs healthy (CD) mice. Conditions: n=10 and pooled. The class given is biochemical. As for the experimental part: All animals were used in accordance with animal care guidelines. Plasma was obtained from these blood samples by centrifugation at 3,500 RPM for 20 min at 4° C. The plasma was stored at −80° C. until it was needed for experimental purposes.
Samples were mixed with protease substrates and quenchers/reporters in 96-well plates. The 96-well plates were read on a Biotech Synergy H1, using 465,535 excitation/emission settings.
A single plasma sample was contacted with the probes for each predetermined protease to provide a multiplex assessment of protease activity in the sample.

Series [7] concerns COVID-related proteases. The series is described as follows: Ex vivo FRET probe cleavage in COVID positive vs negative swab samples. The class given is biochemical.
Another series concerns the target T1, Granzyme B (Homo sapiens, UniProt P10144).
T1 construct: from tissue; host or cells: COVID swab samples
The series is described as follows: Inhibition experiments on Probe #647 signal in COVID swab samples. The class given is biochemical. The settings on record: healthy vs COVID samples, FIG. 39.

Primed or numbered codes have the meaning given here. Where no end group is shown, it is not given here. The star is where a group is joined. 5FAM = O=C1OC2(c3ccc(O)cc3Oc3cc(O)ccc32)c2ccc(C(=O)*)cc21; K(CPQ2) = lysine carrying the CPQ2 quencher; FAM = fluorescent reporter; PEG2′ = not defined here

T1 sequence (P10144 21-247): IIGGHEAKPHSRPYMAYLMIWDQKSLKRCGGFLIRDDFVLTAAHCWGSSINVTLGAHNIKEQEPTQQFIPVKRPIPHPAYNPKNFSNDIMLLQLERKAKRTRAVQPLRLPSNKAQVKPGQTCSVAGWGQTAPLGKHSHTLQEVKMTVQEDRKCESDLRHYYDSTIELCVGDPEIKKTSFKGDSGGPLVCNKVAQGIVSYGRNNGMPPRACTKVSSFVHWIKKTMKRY

For the compound `NCCc1ccc(S(=O)(=O)F)cc1` [AEBSF], the “decrease of RFU signal by inhibitor, NASH” value in series [1] (NASH plasma diluted 1/10 in PBS, Probe #102 6 uM) was 65%. In addition, the “decrease of RFU signal by inhibitor, healthy” value in series [1] (healthy plasma diluted 1/10 in PBS, Probe #102 6 uM) worked out at 60%.

Regarding `CCCNC(=O)[C@H]1O[C@@H]1C(=O)N[C@H](C(=O)N1CCC[C@H]1C(=O)O)[C@@H](C)CC` [CA074], in series [1], the “effect of inhibitor on signal for NASH or healthy samples” value (shortened to “effect of inhibitor on signal”) was “did not significantly decrease signal”.

As to `O=c1[nH]c(-c2ccccc2O)nc2ccccc12` [HPQ, 2-(2″-hydroxyphenyl)-4(3H)-quinazolinone], the solubility in water result in series [2] is given as “strictly insoluble in water”.

`CC(C)C[C@H](NC(=O)[C@H]1O[C@@H]1C(=O)O)C(=O)NCCCCN=C(N)N` [Probe E64, E64]: the “effect of inhibitor on signal” value in series [1] is on record as “decreased NASH signal significantly”.

On to `CN1CCN(c2nc(-c3ccc(C(=O)NC4(C(=O)NCC#N)CCCCC4)cc3)cs2)CC1` [Probe L006235], for which the “effect of inhibitor on signal” value in [1] is reported as “did not significantly decrease signal”.

In the case of `CCCC(=O)O` [butyrate], the “suitability as substrate for enzyme detection” value in series [3] is “promising for detection of broad range of enzymes”.

In the case of “Probe #8: Caspase centric probe (GVDVADGK; not fully specified; 5-FAM, CPQ2 quencher, PEG2, D-Lys-D-Lys-GC)”, the “differentiation between healthy and Jo2 samples” value in series [4] is “show contrast that is specific and sensitive to the Jo2 model”.

Take “Probe #12: Caspase centric probe (GDEVDGK; not fully specified; 5-FAM, CPQ2 quencher, PEG2, D-Lys-D-Lys-GC)”: the “differentiation between healthy and Jo2 samples” value in [4] was “show contrast that is specific and sensitive to the Jo2 model”.

For “Probe #18: a Neutrophil elastase substrate (GAAPVGK; also: 5-FAM, CPQ2 quencher, PEG2-kk-GC, places not given here)”, the “differential cleavage between COVID and healthy samples” value in the series with COVID-related proteases [5] is reported as “demonstrated contrast in both sets”.

For “Probe #84: a Furin substrate (GRVKRGLAGK; also: 5-FAM, CPQ2 quencher, PEG2-kk-GC, places not given here)”, the “differential cleavage between COVID and healthy samples” value with COVID-related proteases [5] is recorded as “demonstrated contrast in both sets”.

Regarding “Probe #96: FRET peptide probe of Table 1 ({FAM}-GRPLALWESQG-{K(CPQ2)-PEG2′-dK-Gly-Cys})”, the “differentiation among healthy, regression and NASH samples” value (shortened to “differentiation among healthy”) in series [6] is “can differentiate”.

Regarding “Probe #102: a CTSL sensing probe; FRET peptide probe with fluorescent reporter and quencher ({FAM}-GKPILFFRLKG-{K(CPQ2)-PEG2′-dK-dK-Gly-Cys})”, the “attribution of measured rate of fluorescence increase” value in the series on NASH-related proteases was “can be ascribed to protease activity and to NASH disease”. In series [6], the “differentiation among healthy” value was “can differentiate”. In [1] (from inhibitor experiments, FIG. 30), the “protease to whose activity the probe responds” value is given as “specifically responds to the activity of cathepsin L (CTSL)”.

Consider “Probe #428: FRET peptide probe of Table 1 ({FAM}-GDRRKKLTQG-{K(CPQ2)-PEG2′-dK-dK-Gly-Cys})”, for which the “differentiation among healthy” value in series [6] is given as “can differentiate”.

Turning to “Probe #462: a MMP8 substrate (GKKAKRNALG; also: FAM, K(CPQ2), PEG2, D-Lys-D-Lys-GC, places not given here)”, in the series on COVID-related proteases [5], the “differential cleavage between COVID and healthy samples” value is reported as “demonstrated contrast in both sets”.

For the compound “Probe #492: FRET peptide probe of Table 1 ({FAM}-GQRANSIRVTWG-{K(CPQ2)-PEG2′-dK-dK-Gly-Cys})”, the “attribution of measured rate of fluorescence increase” value in the series on NASH-related proteases was “can be ascribed to protease activity and to NASH disease”. For the same compound, the “differentiation among healthy” value in series [6] was “can differentiate”.

“Probe #520: FRET peptide probe of Table 1 (5FAM-GKPISLISSG-{K(CPQ2)-PEG2′-Gly-Cys})”: the “differentiation among healthy” value in [6] is given as “can differentiate”.

As to “Probe #647: Caspase centric probe; signal measures the activity of protease Granzyme B (GAIEPDSGG; also: 5FAM, Lys(CPQ2), PEG2, D-Lys-D-Lys, GC-NH2, places not given here)”, the “differentiation among healthy” value in series [6] was “can differentiate”. Besides, the “differentiation between healthy and Jo2 samples” value in [4] was “show contrast that is specific and sensitive to the Jo2 model”. Further, in the series with COVID-related proteases [7] (adjusted RFU across timepoints), the “number of active samples, COVID+” value was 7 samples and the “number of active samples, COVID-” value is given as 1 samples. The “differentiation between COVID+ and COVID- samples” value with COVID-related proteases [7] (swabs in saline) is “key differentiator”. The “protease whose activity the probe signal measures” value with Granzyme B was “measures the activity of protease Granzyme B”.

Take resorufin oleate: the “suitability as substrate for enzyme detection” value in series [3] is recorded as “promising for detection of broad range of enzymes”.
